Test results taken from patent US20240016245A1, “ANTIMICROBIAL FACEMASK” (BMG (British Medical Group) Limited, priority 2020, published 2024).

Test: Compatibility of surfactants with copper sulfate solutions for coating fabric
Assay type: physicochemical

For `CCCCCCCCCCCC[N+](C)(C)[O-]` [dimethyl dodecylamine N-oxide], the “precipitation from copper sulfate solutions / solution suitable for coating” value was “causing precipitation”.

With sodium dodecylbenzenesulfonate the “solubility in solutions of copper sulfate” value (in solutions of copper sulfate) was “very low and insufficient solubility”.

With `CCCCCCCCCCCC[N+](C)(C)CCCS(=O)(=O)O` [lauryl sulfobetaine] the “precipitation from copper sulfate solutions / solution suitable for coating” value was “did not cause precipitation”.

For `CCCCCCCCCCCC[N+](C)(C)CC(=O)O` [dimethyl dodecylglycine betaine], the “precipitation from copper sulfate solutions / solution suitable for coating” value was “did not cause precipitation”.

With `CCCCCCCCCCCCOS(=O)(=O)[O-].[Na+]` [sodium dodecylsulfate] the “precipitation from copper sulfate solutions / solution suitable for coating” value was “acceptable solution for coating”.
